Reference: article PMC11939470, “The Cyclic Antimicrobial Peptide C-LR18 Has Enhanced Antibacterial Activity, Improved Stability, and a Longer Half-Life Compared to the Original Peptide” (Antibiotics, 2025)

Key:
E. coli ATCC25922 = assay: Membrane permeability assay (propidium iodide uptake, flow cytometry); type: cell-based; conditions: melittin 4 μM, positive control, 30 min 37 °C
Procedure: The effect of C-LR18 on bacterial membrane permeability was measured using the propidium iodide (PI) uptake assay described in [22]. E. coli ATCC25922 in logarithmic growth phase were adjusted to 1 × 10^6 CFU/mL. C-LR18 was added with the final concentration of 4 μM. The mixtures were incubated for 30 min at 37 °C. […] After eliminating unbound dye by washing twice with PBS, the bacterial cells were detected using a flow cytometer (Ex = 535 nm/Em = 615 nm). The results were analyzed using FlowJo 6.2.1 and GraphPad Prism 5 software.

[1] = cited from earlier work
Description: An in vivo toxicity test is an essential step in the safety evaluation of exogenous drugs. The purpose is to observe the systemic toxicity of drugs on animals, including whether there are adverse physiological reactions, pathological changes in organs and tissues of the whole body, and the mortality of animals. Therefore, before the treatment of C-LR18 on E. coli-infected mice, we tested the acute toxicity of C-LR18 in mice.

E. coli Y1 [2] = assay: Therapeutic experiment, survival of E. coli-infected mice; type: in vivo, KM mice; conditions: polymyxin B 5.0 mg/kg ip 1 h after ip E. coli Y1 challenge, 10 mice per group
Procedure: The mice (female, 18–21 g) were randomly divided into 6 groups, with PBS dilution as the control group. A total of 1–5 groups were injected intraperitoneally with 0.5 mL of E. coli solution containing […] CFU/mL, respectively. After inoculation, the mice were observed continuously for 5 days, and the mortality rate was recorded. The minimum dose (LD 100) at which all mice die within 5 days was used as the optimal dose for the bacterial attack in this experiment.
In order to further evaluate the therapeutic potential of antimicrobial peptide C-LR18, a mouse model infected with E. coli was constructed in this study. The Km mice (female, 18–21 g) were maintained at constant room temperature [(25 ± 2) °C] with free access to food and water for 48 h. […] A total of 0.5 mL of E. coli Y1 suspension (10^9 CFU/m L) was intraperitoneally injected into each group of mice. One hour after challenge, different doses of C-LR18 (2.5 mg/kg, 5 mg/kg, and 7.5 mg/kg) and polymyxin B (5 mg/kg) were intraperitoneally injected into mice. The group injected with the same dose of physiological water was the control group.

E. coli Y1 [3] = assay: Bacterial load in liver and spleen of mice; type: in vivo; conditions: polymyxin B 1 mg/kg, positive control, one mouse every 24 h
Procedure: One hour after the mice were intraperitoneally injected with 0.5 mL of E. coli Y1 suspension (10^9 CFU/mL), C-LR18 was injected into the mice at a dose of 7.5 mg/kg through the tail vein. The normal saline group was used as negative control, and the polymyxin B group (1 mg/kg) was used as positive control. After that, one mouse was taken every 24 h, sacrificed via cervical dislocation, and the liver and spleen were removed, weighed, and added to PBS buffer for grinding at 3000 r/min for 2 min. The abrasive solution was diluted with sterile PBS (1:10,000), and 0.1 mL diluent was evenly coated in solid MH medium and cultured at 37 °C overnight. Colony counting was performed on the samples, and the bacterial colonization amount in liver and spleen was calculated.

Compound	PI fluorescence of treated cells (PI-A+) (E. coli ATCC25922)	LD50 [1]	survival rate of mice (E. coli Y1 [2])	bacterial colonization in liver and spleen (E. coli Y1 [3])
CC[C@H](C)[C@H](NC(=O)CN)C(=O)NCC(=O)N[C@@H](C)C(=O)N[C@H](C(=O)N[C@@H](CC(C)C)C(=O)N[C@@H](CCCCN)C(=O)N[C@H](C(=O)N[C@@H](CC(C)C)C(=O)N[C@H](C(=O)N[C@H](C(=O)NCC(=O)N[C@@H](CC(C)C)C(=O)N1CCC[C@H]1C(=O)N[C@@H](C)C(=O)N[C@@H](CC(C)C)C(=O)N[C@H](C(=O)N[C@@H](CO)C(=O)N[C@@H](Cc1c[nH]c2ccccc12)C(=O)N[C@H](C(=O)N[C@@H](CCCCN)C(=O)N[C@@H](CCCNC(=N)N)C(=O)N[C@@H](CCCCN)C(=O)N[C@@H](CCCNC(=N)N)C(=O)N[C@@H](CCC(N)=O)C(=O)N[C@@H](CCC(N)=O)C(N)=O)[C@@H](C)CC)[C@@H](C)CC)[C@@H](C)O)[C@@H](C)O)C(C)C)C(C)C [Melittin, reference compound]	83.6%	4.98 mg/kg		
polymyxin B [reference compound]		6.52 mg/kg	50%	significantly less than that in the negative control group
